The target in assay [1] is Calcium/calmodulin-dependent protein kinase type II subunit delta (Homo sapiens) (UniProt Q13557). Briefly: Selectivity interaction (ProQinase) EUB0000171b CAMK2D.
Assay [2] has as its target Bromodomain-containing protein 4 (Homo sapiens, UniProt O60885). Conditions: at 10 µM.
For assay [3], the target named is T1, Dual specificity mitogen-activated protein kinase kinase 6 (Homo sapiens) (UniProt P52564).
T1 sequence (whole entry): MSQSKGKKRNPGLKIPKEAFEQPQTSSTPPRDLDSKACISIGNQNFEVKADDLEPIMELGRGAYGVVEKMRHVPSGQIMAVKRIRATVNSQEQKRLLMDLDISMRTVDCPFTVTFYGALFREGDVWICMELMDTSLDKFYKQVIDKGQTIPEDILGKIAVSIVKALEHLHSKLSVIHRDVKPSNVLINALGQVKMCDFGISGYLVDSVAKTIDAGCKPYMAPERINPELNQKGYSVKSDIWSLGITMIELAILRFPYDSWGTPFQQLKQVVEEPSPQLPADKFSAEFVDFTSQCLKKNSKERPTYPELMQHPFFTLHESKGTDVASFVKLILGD
Description: Selectivity interaction (KinomeScan (DiscoverX)) EUB0001079a MAP2K6. To be noted: at 1 µM.

Assay [4] addresses Cyclin-dependent kinase-like 3 (Homo sapiens) (UniProt Q8IVW4). Description: Selectivity interaction (KinomeScan (DiscoverX)) EUB0000092b CDKL3. Conditions: at 10 µM.
Assay [5] has as its target T2, Receptor-interacting serine/threonine-protein kinase 1 (Homo sapiens) (UniProt Q13546).
T2 sequence (whole entry): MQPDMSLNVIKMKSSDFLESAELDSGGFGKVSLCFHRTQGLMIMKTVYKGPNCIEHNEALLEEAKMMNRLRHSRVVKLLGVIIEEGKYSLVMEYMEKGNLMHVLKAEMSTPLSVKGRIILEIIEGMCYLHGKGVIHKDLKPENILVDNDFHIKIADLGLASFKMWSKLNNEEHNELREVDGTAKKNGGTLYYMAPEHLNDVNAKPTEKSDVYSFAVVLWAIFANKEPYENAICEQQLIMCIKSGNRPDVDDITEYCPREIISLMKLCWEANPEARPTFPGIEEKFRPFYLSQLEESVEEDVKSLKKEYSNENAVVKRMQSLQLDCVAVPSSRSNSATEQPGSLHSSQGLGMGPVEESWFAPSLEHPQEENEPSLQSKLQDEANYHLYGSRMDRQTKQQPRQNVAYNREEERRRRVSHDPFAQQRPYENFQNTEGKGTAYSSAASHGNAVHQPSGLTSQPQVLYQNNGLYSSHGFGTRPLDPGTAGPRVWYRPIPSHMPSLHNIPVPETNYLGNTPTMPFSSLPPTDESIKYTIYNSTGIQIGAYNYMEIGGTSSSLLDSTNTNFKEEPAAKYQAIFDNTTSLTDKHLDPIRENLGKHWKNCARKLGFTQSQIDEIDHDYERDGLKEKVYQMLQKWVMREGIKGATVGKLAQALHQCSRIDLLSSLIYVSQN
Briefly: Selectivity interaction (KinomeScan (DiscoverX)) EUB0001049a RIPK1. Conditions: at 1 µM.

Assay [6] has as its target T3, Dual specificity mitogen-activated protein kinase kinase 5 (Homo sapiens) (UniProt Q13163).
T3 sequence (whole entry): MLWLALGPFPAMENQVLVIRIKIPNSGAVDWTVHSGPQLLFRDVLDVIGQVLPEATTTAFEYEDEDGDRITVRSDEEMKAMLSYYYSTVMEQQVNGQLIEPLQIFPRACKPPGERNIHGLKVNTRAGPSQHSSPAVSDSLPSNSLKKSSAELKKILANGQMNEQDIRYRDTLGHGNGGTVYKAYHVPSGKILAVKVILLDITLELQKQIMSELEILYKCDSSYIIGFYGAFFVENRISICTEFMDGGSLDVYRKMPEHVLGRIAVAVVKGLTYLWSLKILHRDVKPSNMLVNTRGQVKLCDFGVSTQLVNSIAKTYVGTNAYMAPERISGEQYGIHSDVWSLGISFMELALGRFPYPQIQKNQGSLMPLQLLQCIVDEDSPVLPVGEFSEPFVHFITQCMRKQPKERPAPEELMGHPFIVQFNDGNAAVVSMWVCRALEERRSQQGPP
Briefly: Selectivity interaction (LanthaScreen Eu Kinase Binding Assay) EUB0001632a MAP2K5. Conditions: at 10 µM.

The target in assay [7] is Calcium/calmodulin-dependent protein kinase type 1D (Homo sapiens) (UniProt Q8IU85). Briefly: Selectivity interaction (KinomeScan (DiscoverX)) EUB0000607a CAMK1D. Conditions: at 10 µM.
Assay [8] concerns Phosphatidylinositol 4,5-bisphosphate 3-kinase catalytic subunit alpha isoform (Homo sapiens), P42336 [Q546K]. Conditions: at 10 µM.
Assay [9] addresses BMP-2-inducible protein kinase (Homo sapiens) (UniProt Q9NSY1). Description: Selectivity interaction (KinomeScan (DiscoverX)) EUB0000607a BMP2K. To be noted: at 10 µM.
The target in assay [10] is Serine/threonine-protein kinase tousled-like 2 (Homo sapiens) (UniProt Q86UE8). Briefly: Selectivity interaction (ActivX KiNativ screen (kinase selectivity in THP-1 cell lysates)) EUB0000639a TLK2. Format: subcellular. Conditions: lysate, at 0.04 µM.
Assay [11] addresses Serine/threonine-protein kinase N2 (Homo sapiens, UniProt Q16513). Briefly: Selectivity interaction (Kinase panel (33PanQinase(R) Activity Assay)) EUB0000877a PKN2.
The target of assay [12] is Ribosomal protein S6 kinase beta-1 (Homo sapiens, UniProt P23443). Briefly: Selectivity interaction (KinomeScan (DiscoverX)) EUB0001619a RPS6KB1. Conditions: at 1 µM.
The target of assay [13] is T4, Serine/threonine-protein kinase STK11 (Homo sapiens) (UniProt Q15831).
T4 sequence (whole entry): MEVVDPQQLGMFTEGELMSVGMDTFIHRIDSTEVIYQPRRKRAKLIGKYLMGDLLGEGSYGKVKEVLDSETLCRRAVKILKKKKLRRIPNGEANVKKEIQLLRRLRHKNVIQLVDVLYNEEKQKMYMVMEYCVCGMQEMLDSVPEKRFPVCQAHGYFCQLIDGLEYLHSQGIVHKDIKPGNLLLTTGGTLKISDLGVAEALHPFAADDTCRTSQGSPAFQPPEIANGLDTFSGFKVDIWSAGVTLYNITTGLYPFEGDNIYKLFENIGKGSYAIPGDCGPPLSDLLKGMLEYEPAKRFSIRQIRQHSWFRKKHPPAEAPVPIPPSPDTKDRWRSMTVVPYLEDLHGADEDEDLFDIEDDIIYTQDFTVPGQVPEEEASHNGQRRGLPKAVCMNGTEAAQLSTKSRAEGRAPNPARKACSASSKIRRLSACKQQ
Briefly: Selectivity interaction (Kinase panel (literature)) EUB0001199aCl STK11. To be noted: at 1 µM.

The target of assay [14] is Cyclin-dependent kinase 15 (Homo sapiens) (UniProt Q96Q40). Briefly: Selectivity interaction (KinomeScan (DiscoverX)) EUB0000618a CDK15. Conditions: at 10 µM.

Bounds are passed on as bounds.

Calcium/calmodulin-dependent protein kinase type II subunit delta (Homo sapiens), sequence (Q13557 whole entry): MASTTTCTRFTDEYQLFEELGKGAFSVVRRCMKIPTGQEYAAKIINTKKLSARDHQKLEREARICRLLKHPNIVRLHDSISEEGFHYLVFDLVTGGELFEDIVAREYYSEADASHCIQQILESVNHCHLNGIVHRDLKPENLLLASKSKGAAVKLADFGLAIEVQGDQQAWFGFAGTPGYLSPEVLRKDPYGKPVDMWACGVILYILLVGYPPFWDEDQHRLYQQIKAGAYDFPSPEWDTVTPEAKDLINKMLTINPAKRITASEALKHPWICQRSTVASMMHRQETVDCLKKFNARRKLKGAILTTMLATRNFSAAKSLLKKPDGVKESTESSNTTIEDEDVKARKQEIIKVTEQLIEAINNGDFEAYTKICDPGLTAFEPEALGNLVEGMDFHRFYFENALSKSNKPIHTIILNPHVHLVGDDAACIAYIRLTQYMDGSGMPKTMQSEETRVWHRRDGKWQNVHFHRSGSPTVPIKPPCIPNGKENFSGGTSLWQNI
Phosphatidylinositol 4,5-bisphosphate 3-kinase catalytic subunit alpha isoform (Homo sapiens), P42336 [Q546K], sequence (P42336 whole entry Q546K, canonical isoform): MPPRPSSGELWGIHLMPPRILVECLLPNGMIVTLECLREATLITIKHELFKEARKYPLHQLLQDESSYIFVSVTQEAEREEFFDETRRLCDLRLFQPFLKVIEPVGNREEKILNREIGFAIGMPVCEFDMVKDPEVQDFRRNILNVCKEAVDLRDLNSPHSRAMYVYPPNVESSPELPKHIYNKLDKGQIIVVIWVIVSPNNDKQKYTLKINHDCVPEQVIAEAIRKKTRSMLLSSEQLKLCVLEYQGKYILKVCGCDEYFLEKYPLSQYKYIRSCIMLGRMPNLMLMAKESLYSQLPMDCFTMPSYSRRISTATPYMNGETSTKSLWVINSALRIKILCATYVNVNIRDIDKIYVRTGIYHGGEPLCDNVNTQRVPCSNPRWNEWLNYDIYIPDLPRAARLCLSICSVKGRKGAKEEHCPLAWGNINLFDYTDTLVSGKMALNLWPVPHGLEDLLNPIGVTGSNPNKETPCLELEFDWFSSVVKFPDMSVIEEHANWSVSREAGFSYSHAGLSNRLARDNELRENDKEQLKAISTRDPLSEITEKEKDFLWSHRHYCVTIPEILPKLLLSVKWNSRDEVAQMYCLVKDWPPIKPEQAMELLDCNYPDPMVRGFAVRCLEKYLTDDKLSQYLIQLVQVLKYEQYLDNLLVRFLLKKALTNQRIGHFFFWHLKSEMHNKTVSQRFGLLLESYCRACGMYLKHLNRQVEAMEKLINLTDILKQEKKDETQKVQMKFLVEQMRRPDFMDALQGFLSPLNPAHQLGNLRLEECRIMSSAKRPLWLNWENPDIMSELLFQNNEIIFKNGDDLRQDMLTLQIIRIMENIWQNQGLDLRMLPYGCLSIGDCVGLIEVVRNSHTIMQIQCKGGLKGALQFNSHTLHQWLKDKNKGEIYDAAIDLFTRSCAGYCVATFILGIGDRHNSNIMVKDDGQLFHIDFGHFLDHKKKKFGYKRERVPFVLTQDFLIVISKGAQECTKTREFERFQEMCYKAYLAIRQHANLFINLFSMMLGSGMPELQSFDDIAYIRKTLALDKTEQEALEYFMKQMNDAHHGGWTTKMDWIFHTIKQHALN
Cyclin-dependent kinase-like 3 (Homo sapiens), sequence (Q8IVW4 whole entry, looked up): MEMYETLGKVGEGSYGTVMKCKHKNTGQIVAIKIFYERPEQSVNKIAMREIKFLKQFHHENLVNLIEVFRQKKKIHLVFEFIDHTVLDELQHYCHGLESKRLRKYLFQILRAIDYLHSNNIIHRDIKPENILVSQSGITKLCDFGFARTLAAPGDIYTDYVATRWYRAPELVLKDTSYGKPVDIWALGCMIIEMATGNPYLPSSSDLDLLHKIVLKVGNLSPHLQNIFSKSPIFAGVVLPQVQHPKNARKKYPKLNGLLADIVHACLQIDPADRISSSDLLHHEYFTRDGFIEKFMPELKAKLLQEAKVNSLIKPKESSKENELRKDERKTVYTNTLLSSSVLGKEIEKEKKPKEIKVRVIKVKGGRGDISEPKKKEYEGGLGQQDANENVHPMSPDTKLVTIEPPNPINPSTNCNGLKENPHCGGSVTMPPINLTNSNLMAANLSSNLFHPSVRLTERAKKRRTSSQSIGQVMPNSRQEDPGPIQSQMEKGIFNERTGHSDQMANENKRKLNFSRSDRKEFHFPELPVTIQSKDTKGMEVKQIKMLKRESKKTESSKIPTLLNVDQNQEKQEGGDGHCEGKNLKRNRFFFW
BMP-2-inducible protein kinase (Homo sapiens), sequence (Q9NSY1 whole entry, looked up): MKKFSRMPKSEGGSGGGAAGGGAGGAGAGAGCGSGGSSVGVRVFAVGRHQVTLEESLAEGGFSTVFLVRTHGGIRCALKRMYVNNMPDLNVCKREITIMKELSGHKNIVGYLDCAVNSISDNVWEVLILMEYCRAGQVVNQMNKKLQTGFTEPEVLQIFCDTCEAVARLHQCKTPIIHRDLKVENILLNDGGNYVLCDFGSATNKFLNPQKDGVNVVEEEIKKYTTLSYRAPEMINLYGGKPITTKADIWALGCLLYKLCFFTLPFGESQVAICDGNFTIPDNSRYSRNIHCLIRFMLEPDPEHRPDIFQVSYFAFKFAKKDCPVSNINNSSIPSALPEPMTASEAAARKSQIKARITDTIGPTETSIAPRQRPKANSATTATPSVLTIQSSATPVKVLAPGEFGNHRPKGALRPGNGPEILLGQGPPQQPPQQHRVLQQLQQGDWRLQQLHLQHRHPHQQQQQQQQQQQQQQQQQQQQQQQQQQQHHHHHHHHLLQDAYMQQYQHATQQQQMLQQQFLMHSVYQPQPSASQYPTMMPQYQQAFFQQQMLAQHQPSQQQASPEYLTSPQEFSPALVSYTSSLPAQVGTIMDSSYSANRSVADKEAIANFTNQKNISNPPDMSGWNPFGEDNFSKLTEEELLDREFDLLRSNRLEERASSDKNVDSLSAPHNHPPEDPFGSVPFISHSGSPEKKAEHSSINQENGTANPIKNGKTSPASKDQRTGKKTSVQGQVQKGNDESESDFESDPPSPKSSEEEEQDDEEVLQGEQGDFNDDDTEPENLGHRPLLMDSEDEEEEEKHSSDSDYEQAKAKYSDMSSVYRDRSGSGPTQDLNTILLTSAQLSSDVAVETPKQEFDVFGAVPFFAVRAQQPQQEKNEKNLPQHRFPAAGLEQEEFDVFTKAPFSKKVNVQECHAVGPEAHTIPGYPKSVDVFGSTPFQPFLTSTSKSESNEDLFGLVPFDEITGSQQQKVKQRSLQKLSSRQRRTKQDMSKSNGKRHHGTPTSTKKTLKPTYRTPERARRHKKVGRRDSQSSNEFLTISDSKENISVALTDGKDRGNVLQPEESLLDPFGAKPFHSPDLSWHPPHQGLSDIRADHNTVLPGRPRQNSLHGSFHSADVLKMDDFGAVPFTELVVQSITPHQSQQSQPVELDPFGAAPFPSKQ
Calcium/calmodulin-dependent protein kinase type 1D (Homo sapiens), sequence (Q8IU85 whole entry, looked up, canonical isoform): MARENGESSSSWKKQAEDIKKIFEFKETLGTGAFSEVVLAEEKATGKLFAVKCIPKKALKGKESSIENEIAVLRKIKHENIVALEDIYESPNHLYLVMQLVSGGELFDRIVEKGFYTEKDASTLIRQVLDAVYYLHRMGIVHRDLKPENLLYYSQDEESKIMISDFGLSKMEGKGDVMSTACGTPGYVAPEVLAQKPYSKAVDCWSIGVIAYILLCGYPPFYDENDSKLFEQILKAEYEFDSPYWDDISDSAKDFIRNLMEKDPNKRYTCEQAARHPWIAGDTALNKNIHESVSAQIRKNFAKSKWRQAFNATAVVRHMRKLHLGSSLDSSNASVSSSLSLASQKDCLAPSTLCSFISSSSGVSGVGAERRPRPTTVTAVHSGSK
Cyclin-dependent kinase 15 (Homo sapiens), sequence (Q96Q40 whole entry): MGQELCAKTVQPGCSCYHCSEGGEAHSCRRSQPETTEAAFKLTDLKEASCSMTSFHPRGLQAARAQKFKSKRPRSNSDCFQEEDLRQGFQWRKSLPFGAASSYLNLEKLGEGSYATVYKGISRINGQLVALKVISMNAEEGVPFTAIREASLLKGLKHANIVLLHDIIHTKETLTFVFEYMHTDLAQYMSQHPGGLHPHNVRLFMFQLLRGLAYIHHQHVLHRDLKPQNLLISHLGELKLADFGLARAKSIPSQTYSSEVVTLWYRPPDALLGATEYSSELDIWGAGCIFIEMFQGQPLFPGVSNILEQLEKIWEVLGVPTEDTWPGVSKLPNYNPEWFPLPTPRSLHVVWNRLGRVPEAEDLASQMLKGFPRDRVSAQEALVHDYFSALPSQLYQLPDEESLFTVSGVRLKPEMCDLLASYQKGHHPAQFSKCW
Ribosomal protein S6 kinase beta-1, sequence (P23443 whole entry, looked up): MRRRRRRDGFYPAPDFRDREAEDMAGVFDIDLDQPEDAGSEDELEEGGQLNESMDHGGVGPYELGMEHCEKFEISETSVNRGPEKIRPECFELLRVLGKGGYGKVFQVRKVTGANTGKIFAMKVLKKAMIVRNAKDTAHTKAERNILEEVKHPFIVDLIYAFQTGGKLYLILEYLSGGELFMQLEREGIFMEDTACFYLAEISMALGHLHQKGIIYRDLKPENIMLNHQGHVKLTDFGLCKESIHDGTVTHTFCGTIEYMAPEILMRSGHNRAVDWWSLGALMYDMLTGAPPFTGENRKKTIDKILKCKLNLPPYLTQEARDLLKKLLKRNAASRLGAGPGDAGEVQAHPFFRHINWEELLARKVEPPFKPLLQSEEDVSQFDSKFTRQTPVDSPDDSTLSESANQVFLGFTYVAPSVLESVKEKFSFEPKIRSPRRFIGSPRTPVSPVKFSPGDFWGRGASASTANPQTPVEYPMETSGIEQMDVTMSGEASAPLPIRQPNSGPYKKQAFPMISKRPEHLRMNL

For the compound `C=CC(=O)Nc1cccc(C(=O)Nc2ccc(Nc3cc(-c4[nH]c(SC)nc4C)ccn3)cc2)c1`, the % of control turned out to be 95% in assay [1] (at 1 µM) and 92% in [1] (at 5 µM).

In assay [2], `Cc1cc([C@@H](C)Nc2ccccc2C(=O)O)c2nc(N3CCOCC3)cc(=O)n2c1` [AZD-6482] came in with a % of control of 82%.

For the compound `Nc1cnc(N2CCc3cc(S(=O)(=O)Nc4c(F)cc(Cl)cc4F)cc(N4CCCC4=O)c32)nc1` [TP-020n], the % of control in assay [3] is 71%.

As to `CCC(=O)N1CCN(c2ccc(-n3c(=O)ccc4cnc5ccc(-c6cnc7ccccc7c6)cc5c43)cc2C(F)(F)F)CC1`, in [4], the % of control was 92%.

Regarding `COc1cc(Nc2nc(C)cc(-c3cnn4nc(OC)ccc34)n2)cc(C(F)(F)F)c1`, the % of control in assay [5] was 93%.

As for `Cn1cc(-n2cnc3c(NCc4nc5cc(Cl)c(Cl)cc5[nH]4)nc(N4CCOCC4)nc32)cn1`, in assay [6], the % of inhibition turned out to be 0.023%.

As to `CNC(=O)Nc1ccc(-c2nc(N3CC4CCC(C3)O4)c3cnn(C4CCC5(CC4)OCCO5)c3n2)cc1`, the % of control came to 95% in [7], 11% in [8] and 85% in assay [9].

`CC[C@@H]1[C@H](F)C(=O)N[C@@H]1COc1nccc2cc(C(N)=O)c(OC)cc12` [ZIMLOVISERTIB] gave a % of inhibition in assay [10] of 9.2%.

`CCC(=O)N1CC[C@H](Nc2ncnc3c2CN(c2cnc(OC)c(C(F)(F)F)c2)CC3)C1` [LENIOLISIB] showed an IC50 in assay [11] greater than 10 µM.

In assay [12], `N#Cc1cccc(-c2c[nH]c3ncnc(N4CCOCC4)c23)c1` gave a % of control of 100%.

In turn, `CN1Cc2nccc(-c3cn(C)nc3-c3ccc(F)cc3)c2C1=O` registered a % of inhibition in assay [13] of 3%.

For `O[C@H]1CC[C@H](Nc2ncc3nc(Nc4c(F)cc(F)cc4F)n([C@H]4CCOC4)c3n2)CC1`, the % of control in [14] amounted to 100%.

As a reminder, the IC50 is the concentration that gives 50% inhibition. Low readings indicate inhibition by little substance, high ones a need for much substance.

(Values after ChEMBL document CHEMBL5465560, “Selectivity Literature for EUbOPEN Chemogenomic Library” (2024).)
